The conditions of data set [1]: according to The Sigma-Aldrich Handbook of Stains, Dyes and Indicators; cited from earlier work.
A short description of data set [2]: Solubility / concentration of colorant in toluene. The conditions noted are these: pure colorant. In kind it is physicochemical.

The values that follow come from patent EP1321493A1, “Method for enhancing the solubility of a colorant” (DSM N.V., priority 2001, dated 2003).

As to `CC1(C)Nc2cccc3c(N=Nc4ccc(N=Nc5ccccc5)c5ccccc45)ccc(c23)N1` [Solvent Black 3], the “maximum solubility of the pure dye in water” value (from here on “maximum solubility”) in data set [1] is listed as 0.01%.

On to `CCN(CC)c1ccc(C(=C2C=CC(=[N+](CC)CC)C=C2)c2ccc(S(=O)(=O)[O-])cc2S(=O)(=O)[O-])cc1.[Na+]` [Acid Blue 1], for which the “maximum solubility” value in data set [1] is 3,0%.

As for `Cl.Cl.Nc1ccc(N=Nc2cccc(N=Nc3ccc(N)cc3N)c2)c(N)c1` [Basic Brown 1], in data set [2], the “solubility in toluene (in words)” value was “insoluble”.

With `O=C1/C(=C2\Nc3ccc(S(=O)(=O)[O-])cc3C2=O)Nc2ccc(S(=O)(=O)[O-])cc21.[Na+].[Na+]` [Acid Blue 74], the “maximum solubility” value in data set [1] is given as 0.3%.
